{
  "source": "patent US20260068885A1",
  "about": "“HERBICIDAL COMPOSITIONS” (BAYER AKTIENGESELLSCHAFT, priority 2022, published 2026)",
  "assay_in_all_cases": "Post-emergence herbicidal action against harmful plants (greenhouse)",
  "type_in_all_cases": "in vivo",
  "key": {"[1]": {"tested_on": "Xanthium strumarium (XANST)"}, "[2]": {"tested_on": "Polygonum convolvulus (POLCO)"}, "[3]": {"tested_on": "Xanthium strumarium (XANST)", "remark": "listed apart in the source"}, "[4]": {"tested_on": "Sorghum halepense (SORHA)", "outline": "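Monocot and dicot weed and crop seeds were sown in sandy loam soil in wood-fibre pots, covered with soil, and grown in a greenhouse under good conditions. At the one-leaf stage, 2 to 3 weeks after sowing, the green plant parts were sprayed with compounds formulated as WP or EC in aqueous suspension or emulsion at 600 to 800 l/ha water plus 0.2% wetting agent. Herbicidal action (%) was scored visually against untreated controls, where 100% means the plants died and 0% means they look like controls.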"}, "[5]": {"tested_on": "Euphorbia heterophylla (EPHHL)", "conditions": "for Herbicidal efficacy: EPHHL 21 DAT", "outline": "(§1)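 Plants grown from seed in sandy loam in the greenhouse were sprayed at the one-leaf stage, 2 to 3 weeks after sowing, with WP or EC formulations as aqueous suspension/emulsion at 600 to 800 l/ha water plus 0.2% wetting agent. Damage was rated visually after about 3 weeks versus untreated controls (0% = like control, 100% = dead).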"}, "[6]": {"tested_on": "Brachiaria platyphylla (BRAPP)", "outline": "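Weed and crop seeds were sown in sandy loam soil in wood-fibre pots, covered with soil, and grown in a greenhouse under good conditions. At the one-leaf stage, 2 to 3 weeks after sowing, plants were sprayed on green parts with WP or EC formulations as aqueous suspension or emulsion at 600 to 800 l/ha water plus 0.2% wetting agent. Herbicidal action was visually scored in percent versus untreated controls.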"}, "Emex australis (EMEAU)": {"tested_on": "Emex australis (EMEAU)", "outline": "as §1"}, "[7]": {"tested_on": "Pharbitis purpurea (PHBPU)"}, "[8]": {"tested_on": "Erigeron bonariensis (ERIBO)"}, "[9]": {"tested_on": "Abutilon theophrasti (ABUTH)"}, "Cyperus iria (CYPIR)": {"tested_on": "Cyperus iria (CYPIR)"}, "Setaria viridis (SETVI)": {"tested_on": "Setaria viridis (SETVI)"}, "Solanum nigrum (SOLNI)": {"tested_on": "Solanum nigrum (SOLNI)"}, "[10]": {"conditions": "application rate 2 g a.i./ha, 21 DAT"}},
  "data": [
    {"smiles": "Cc1nnc(NC(=O)c2ccc(C(F)(F)F)c([S@+](C)[O-])c2Cl)o1", "note": "[I-5]", "values": [
      {"measurement": "Herbicidal efficacy [%] against XANST 10 DAT", "setting": "[1]; application rate 0.5 g a.i./ha", "result": 20, "unit": "%"},
      {"measurement": "Herbicidal efficacy [%] against XANST 21 DAT", "setting": "[1]; application rate 0.5 g a.i./ha, 21 DAT, table with flufenoximacil", "result": 30, "unit": "%"},
      {"measurement": "Herbicidal efficacy [%] against XANST 10 DAT", "setting": "[1]; application rate 2 g a.i./ha", "result": 30, "unit": "%"},
      {"measurement": "Herbicidal efficacy", "setting": "[2]; POLCO 10 DAT, 0.5 g a.i./ha", "result": 0, "unit": "%"},
      {"measurement": "Herbicidal efficacy", "setting": "[2]; POLCO 10 DAT, 2 g a.i./ha", "result": 0, "unit": "%"},
      {"measurement": "Herbicidal efficacy", "setting": "[2]; POLCO 21 DAT, 0.5 g a.i./ha", "result": 0, "unit": "%"},
      {"measurement": "Herbicidal efficacy", "setting": "[2]; POLCO 21 DAT, 2 g a.i./ha", "result": 0, "unit": "%"},
      {"measurement": "Herbicidal efficacy [%] against POLCO 21 DAT", "setting": "[2]; [10]", "result": 30, "unit": "%"},
      {"measurement": "Herbicidal efficacy [%] against XANST 21 DAT", "setting": "[3]; application rate 0.5 g a.i./ha", "result": 10, "unit": "%"},
      {"measurement": "Herbicidal efficacy [%] against XANST 21 DAT", "setting": "[3]; application rate 2 g a.i./ha", "result": 20, "unit": "%"},
      {"measurement": "Herbicidal efficacy [%] against SORHA 10 DAT", "setting": "[4]; application rate 0.5 g a.i./ha", "result": 0, "unit": "%"},
      {"measurement": "Herbicidal efficacy [%] against SORHA 21 DAT", "setting": "[4]; application rate 0.5 g a.i./ha", "result": 0, "unit": "%"},
      {"measurement": "Herbicidal efficacy [%] against SORHA 10 DAT", "setting": "[4]; application rate 2 g a.i./ha", "result": 20, "unit": "%"},
      {"measurement": "Herbicidal efficacy [%] against SORHA 10 DAT", "setting": "[4]; application rate 2 g a.i./ha, table with flufenoximacil", "result": 90, "unit": "%"},
      {"measurement": "Herbicidal efficacy [%] against SORHA 21 DAT", "setting": "[4]; application rate 2 g a.i./ha", "result": 10, "unit": "%"},
      {"measurement": "Herbicidal efficacy", "setting": "[5]; 0.5 g a.i./ha", "result": 0, "unit": "%"},
      {"measurement": "Herbicidal efficacy", "setting": "[5]; 2 g a.i./ha", "result": 10, "unit": "%"},
      {"measurement": "Herbicidal efficacy [%] against EPHHL 21 DAT", "setting": "[5]; application rate 0.5 g a.i./ha", "result": 30, "unit": "%"},
      {"measurement": "Herbicidal efficacy [%] against EPHHL 21 DAT", "setting": "[5]; application rate 2 g a.i./ha", "result": 40, "unit": "%"},
      {"measurement": "Herbicidal efficacy", "setting": "[6]; BRAPP 10 DAT, 0.5 g a.i./ha", "result": 0, "unit": "%"},
      {"measurement": "Herbicidal efficacy", "setting": "[6]; BRAPP 10 DAT, 2 g a.i./ha", "result": 30, "unit": "%"},
      {"measurement": "Herbicidal efficacy", "setting": "[6]; BRAPP 21 DAT, 0.5 g a.i./ha", "result": 0, "unit": "%"},
      {"measurement": "Herbicidal efficacy", "setting": "[6]; BRAPP 21 DAT, 2 g a.i./ha", "result": 0, "unit": "%"},
      {"measurement": "Herbicidal efficacy", "setting": "Emex australis (EMEAU); EMEAU 10 DAT, 0.5 g a.i./ha", "result": 20, "unit": "%"},
      {"measurement": "Herbicidal efficacy", "setting": "Emex australis (EMEAU); EMEAU 10 DAT, 2 g a.i./ha", "result": 20, "unit": "%"},
      {"measurement": "Herbicidal efficacy", "setting": "Emex australis (EMEAU); EMEAU 21 DAT, 0.5 g a.i./ha", "result": 0, "unit": "%"},
      {"measurement": "Herbicidal efficacy", "setting": "Emex australis (EMEAU); EMEAU 21 DAT, 2 g a.i./ha", "result": 10, "unit": "%"},
      {"measurement": "Herbicidal efficacy [%] against EMEAU 10 DAT", "setting": "Emex australis (EMEAU); application rate 0.5 g a.i./ha, 10 DAT", "result": 30, "unit": "%"},
      {"measurement": "Herbicidal efficacy [%] against EMEAU 21 DAT", "setting": "Emex australis (EMEAU); application rate 0.5 g a.i./ha", "result": 20, "unit": "%"},
      {"measurement": "Herbicidal efficacy [%] against EMEAU 21 DAT", "setting": "Emex australis (EMEAU); application rate 2 g a.i./ha", "result": 88, "unit": "%"},
      {"measurement": "Herbicidal efficacy", "setting": "[7]; PHBPU 10 DAT, 0.5 g a.i./ha", "result": 0, "unit": "%"},
      {"measurement": "Herbicidal efficacy", "setting": "[7]; PHBPU 10 DAT, 2 g a.i./ha", "result": 20, "unit": "%"},
      {"measurement": "Herbicidal efficacy", "setting": "[7]; PHBPU 21 DAT, 0.5 g a.i./ha", "result": 0, "unit": "%"},
      {"measurement": "Herbicidal efficacy", "setting": "[7]; PHBPU 21 DAT, 2 g a.i./ha", "result": 0, "unit": "%"},
      {"measurement": "Herbicidal efficacy [%] against PHBPU 21 DAT", "setting": "[7]; application rate 0.5 g a.i./ha, 21 DAT", "result": 40, "unit": "%"},
      {"measurement": "Herbicidal efficacy", "setting": "[8]; ERIBO 10 DAT, 0.5 g a.i./ha", "result": 0, "unit": "%"},
      {"measurement": "Herbicidal efficacy", "setting": "[8]; ERIBO 10 DAT, 2 g a.i./ha", "result": 10, "unit": "%"},
      {"measurement": "Herbicidal efficacy", "setting": "[8]; ERIBO 21 DAT, 0.5 g a.i./ha", "result": 0, "unit": "%"},
      {"measurement": "Herbicidal efficacy", "setting": "[8]; ERIBO 21 DAT, 2 g a.i./ha", "result": 0, "unit": "%"},
      {"measurement": "Herbicidal efficacy [%] against ERIBO 21 DAT", "setting": "[8]; [10]", "result": 40, "unit": "%"},
      {"measurement": "Herbicidal efficacy", "setting": "[9]; ABUTH 10 DAT, 0.5 g a.i./ha", "result": 20, "unit": "%"},
      {"measurement": "Herbicidal efficacy", "setting": "[9]; ABUTH 10 DAT, 2 g a.i./ha", "result": 60, "unit": "%"},
      {"measurement": "Herbicidal efficacy", "setting": "[9]; ABUTH 21 DAT, 0.5 g a.i./ha", "result": 10, "unit": "%"},
      {"measurement": "Herbicidal efficacy", "setting": "[9]; ABUTH 21 DAT, 2 g a.i./ha", "result": 30, "unit": "%"},
      {"measurement": "Herbicidal efficacy", "setting": "Cyperus iria (CYPIR); CYPIR 10 DAT, 0.5 g a.i./ha", "result": 50, "unit": "%"},
      {"measurement": "Herbicidal efficacy", "setting": "Cyperus iria (CYPIR); CYPIR 10 DAT, 2 g a.i./ha", "result": 80, "unit": "%"},
      {"measurement": "Herbicidal efficacy", "setting": "Cyperus iria (CYPIR); CYPIR 21 DAT, 0.5 g a.i./ha", "result": 40, "unit": "%"},
      {"measurement": "Herbicidal efficacy", "setting": "Cyperus iria (CYPIR); CYPIR 21 DAT, 2 g a.i./ha", "result": 60, "unit": "%"},
      {"measurement": "Herbicidal efficacy", "setting": "Setaria viridis (SETVI); SETVI 10 DAT, 0.5 g a.i./ha", "result": 20, "unit": "%"},
      {"measurement": "Herbicidal efficacy", "setting": "Setaria viridis (SETVI); SETVI 10 DAT, 2 g a.i./ha", "result": 40, "unit": "%"},
      {"measurement": "Herbicidal efficacy", "setting": "Setaria viridis (SETVI); SETVI 21 DAT, 0.5 g a.i./ha", "result": 10, "unit": "%"},
      {"measurement": "Herbicidal efficacy", "setting": "Setaria viridis (SETVI); SETVI 21 DAT, 2 g a.i./ha", "result": 20, "unit": "%"},
      {"measurement": "Herbicidal efficacy", "setting": "Solanum nigrum (SOLNI); SOLNI 10 DAT, 0.5 g a.i./ha", "result": 20, "unit": "%"},
      {"measurement": "Herbicidal efficacy", "setting": "Solanum nigrum (SOLNI); SOLNI 10 DAT, 2 g a.i./ha", "result": 60, "unit": "%"},
      {"measurement": "Herbicidal efficacy", "setting": "Solanum nigrum (SOLNI); SOLNI 21 DAT, 0.5 g a.i./ha", "result": 0, "unit": "%"},
      {"measurement": "Herbicidal efficacy", "setting": "Solanum nigrum (SOLNI); SOLNI 21 DAT, 2 g a.i./ha", "result": 20, "unit": "%"},
      {"measurement": "Herbicidal efficacy [%] against SOLNI 10 DAT", "setting": "Solanum nigrum (SOLNI); application rate 0.5 g a.i./ha", "result": 20, "unit": "%"},
      {"measurement": "Herbicidal efficacy [%] against SOLNI 21 DAT", "setting": "Solanum nigrum (SOLNI); application rate 0.5 g a.i./ha", "result": 0, "unit": "%"},
      {"measurement": "Herbicidal efficacy [%] against SOLNI 10 DAT", "setting": "Solanum nigrum (SOLNI); application rate 2 g a.i./ha", "result": 60, "unit": "%"},
      {"measurement": "Herbicidal efficacy [%] against SOLNI 21 DAT", "setting": "Solanum nigrum (SOLNI); application rate 2 g a.i./ha", "result": 20, "unit": "%"}
    ]}
  ]
}
